Measured values reported in patent US9056865B2, “Pyridine-2-derivatives as smoothened receptor modulators” (Pfizer Inc., priority 2010, dated 2015).

Experiments:
human Smo = human Smo (Homo sapiens (Human), UniProt Q99835); assay: Smo radioligand competition binding assay; conditions: for inhibition at 0.05 µM: 0.05 μM test compound, read-out: Smo % inh. @ 0.05 μM
Method: Smo Radioligand Competition Binding Assay
Membranes were prepared from a stable cell line created in HEK293FlpIn-TetR cells (Invitrogen) using Flp recombinase-mediated insertion of the pSecTag-FRT/V5-His vector containing a cDNA encoding amino acids […] of human Smo fused to the murine Igk leader sequence to produce a cell surface expressed Smo 181-781 protein. Hygromycin-resistant clones were obtained and stained for LacZ expression (no expression indicates a correct knock-in of fusion cDNA). LacZ-negative cells were analyzed for binding tritiated Smo antagonists. For membrane preparation, the HEK293 cells expressing Smo 181-781 were grown to 90% confluence in nine to fifteen 245 mm×245 mm×22 mm dishes, washed with Dulbecco's PBS (15 mL per dish) and harvested via scraping in 10 mL of DPBS. The cells were collected and centrifuged at 1500 rpm (400×g) for 10 min at 4° C. The cell pellets were re-suspended in 40 mL of cold DPBS and washed by centrifugation at 2300 rpm (950×g max) for 10 minutes at 4° C. The supernatant was aspirated and the cell pellet was snap frozen in a methanol/dry ice bath and stored at −70° C. For membrane preparation, 15 mL of Membrane Preparation Buffer (50 mM Tris-HCl pH 7.5, 250 mM sucrose with Roche complete protease cocktail tablets) was added to the tube containing the cell pellet, then cells are rapidly thawed, and homogenized using an Ultra-Turrax T8 (IKA Labortechnik) set on “6” for 15 seconds for 5-6 times in icy water bath. This homogenate was diluted up to 50 mL using Membrane Preparation Buffer and centrifuged at 35,000 rpm in a Beckman Ti45 rotor (140,000×g) for 35 minutes at 4° C. followed by aspiration of the supernatant and re-suspension of the pellet in 5 mL of Assay Buffer (50 mM Tris-HCl pH 7.5, 100 mM NaCl, 25 mM MgCl2, 1 mM EDTA, and 0.1% protease free bovine serum albumin). The re-suspended pellet was then homogenized in a glass tissue grinder. The re-suspended membranes were aliquoted (0.5 mL aliquots), snap frozen and stored at −70° C. Total protein in the membrane preparation was determined using the Pierce BCA protein assay (Pierce Chemical).
For the binding competition assay, 100 μL of Assay Buffer was added to all the wells of a 96 well GF/B filter plate (Millipore MultiScreen-HTS-FB cat# MSFBN6B50) for 10 minutes to pre-wet the filter prior to evacuation of the buffer (8 inches Hg for 8 seconds). To the pre-wet wells is added: 20 μL of Assay Buffer, 10 μL diluted test agent, 20 μL of a tritiated Smo antagonist (15 nM stock solution), and 50 μL of membrane preparation (40 μg total protein per well). The plates are sealed and mixed at room temperature for 5 min, incubated at room temperature for 2 hours, then washed 5 times with 100 μL/each of wash buffer and vacuum dried for 8 seconds at 8 inches Hg. The plate is then dried for one hour in a 60° C. oven prior to the addition of 45 μL of Microscint 20 (Packard, #6013621) to each well and incubation at RT for 30 minutes to 1 hour. The plate is counted in a TopCount scintillation counter (Perkin Elmer).
Data analysis uses Excel for % Inhibition and Graphpad Prism for IC50 calculation. Total binding (TB, in the absence of inhibitors)=average of tritiated Smo antagonist 3 nM+Smo membrane (40 μg/wells (approx 5000-7000 CPM)). Non-specific binding (NSB)=average of tritiated Smo antagonist (3 nM)+cold Smo antagonist (30 μM)+Smo membrane (approx 600-1200 CPM). Specific binding (SB)=(total binding−non-specific binding). % Inhibition=[1−(compound Specific binding/control Specific binding)]×100%. IC50 is calculated by fitting the data to the four parameter sigmoidal dose-response curve (variable slope) Y=Bottom+(Top-Bottom)/(1+10^((LogEC50−X)*HillSlope)). X is the logarithm of the inhibitor concentration. Y is the response; Y starts at Bottom and goes to Top with a sigmoid shape.

Gli-Luc/MEF cells = assay: Gli-Luc/MEF assay; assay type: cell-based, mouse; conditions: Mus musculus, MEF; Shh-stimulated luciferase, 48 hours
Method: The Gli-Luc/MEF cells obtained from Gli-Luc transgenic mice contain a luciferase reporter gene under the control of the Gli response element. Luciferase activity stimulated with Sonic hedgehog ligand was inhibited by Smo inhibitors, and IC50 was subsequently calculated.
Plates were incubated at 37° C. and 5% CO2 overnight. On day two, cells were dosed with test compounds at a final concentration ranging from 3 μM to 50 μM at a 3-time series dilution. Immediately after dosing cells with compounds, recombinant mouse sonic hedgehog (Shh, R&D Systems 464-SH) was added to a final concentration of 2 μg/mL. The cells were incubated with compounds and Shh for 48 hours at 37° C. and 5% CO2. Luciferase assays were conducted on Day 4 using the Bright-Glo Luciferase assay system (Promega E2620) according to Promega's protocol. Briefly, Bright-Glo luciferase reagent was made up and 25 μL were added to each well of the 384-well plate containing media. Plates were kept at room temperature for 5 minutes, and then read on an Envision Luminescence plate reader (Perkin-Elmer). IC50 of the inhibition was calculated by using GraphPad Prism.

human Smo, sequence (Q99835 181-787): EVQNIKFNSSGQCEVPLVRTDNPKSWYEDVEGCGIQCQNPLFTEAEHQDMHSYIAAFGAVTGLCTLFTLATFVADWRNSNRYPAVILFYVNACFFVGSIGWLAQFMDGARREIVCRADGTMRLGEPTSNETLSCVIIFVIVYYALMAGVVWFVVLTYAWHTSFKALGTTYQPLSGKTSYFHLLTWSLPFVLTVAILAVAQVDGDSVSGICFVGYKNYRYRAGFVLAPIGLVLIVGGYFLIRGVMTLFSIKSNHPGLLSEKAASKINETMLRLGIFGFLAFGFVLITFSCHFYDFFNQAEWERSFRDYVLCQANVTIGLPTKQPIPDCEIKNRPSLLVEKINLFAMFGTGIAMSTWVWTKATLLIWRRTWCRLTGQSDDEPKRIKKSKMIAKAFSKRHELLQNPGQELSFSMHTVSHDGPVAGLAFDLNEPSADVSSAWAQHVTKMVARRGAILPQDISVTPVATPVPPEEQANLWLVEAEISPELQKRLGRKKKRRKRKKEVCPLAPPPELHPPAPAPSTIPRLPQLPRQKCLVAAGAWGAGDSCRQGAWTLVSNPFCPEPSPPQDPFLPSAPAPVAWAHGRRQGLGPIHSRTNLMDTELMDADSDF

SMILES | IC50 (human Smo) [nM] | inhibition at 0.05 µM (human Smo) [%] | IC50 (Gli-Luc/MEF cells) [nM]
Cc1cccnc1-c1cc(N2CCC(C(=O)N[C@H]3CC[C@H](O)CC3)CC2)ncc1Cl (stereo in doubt) [Example A-71, 1-(5′-chloro-3-methyl-2,4′-bipyridin-2′-yl)-N-(trans-4-hydroxycyclohexyl)piperidine-4-carboxamide] | 72.9 | 85.7 | 39.4
CS(=O)(=O)NC1CCN(c2cc(-c3ccccn3)c(Cl)cn2)CC1 [Example A-7, N-[1-(5′-chloro-2,4′-bipyridin-2′-yl)piperidin-4-yl]methanesulfonamide] |  | 45 | 
Cc1cccnc1-c1cc(N2CCC(NS(C)(=O)=O)CC2)ncc1Cl [Example A-8, N-[1-(5′-chloro-3-methyl-2,4′-bipyridin-2′-yl)piperidin-4-yl]methanesulfonamide] | 18.7 | 92 | 39.2
Cc1ccc(-c2cc(N3CCC(NS(C)(=O)=O)CC3)ncc2Cl)nc1 [Example A-9, N-[1-(5′-chloro-5-methyl-2,4′-bipyridin-2′-yl)piperidin-4-yl]methanesulfonamide] | 75 | 65 | 226
CS(=O)(=O)NC1CCN(c2cc(-c3ncccc3Cl)c(Cl)cn2)CC1 [Example A-10, N-[1-(3,5′-dichloro-2,4′-bipyridin-2′-yl)piperidin-4-yl]methanesulfonamide] | 32.1 | 75 | 209
CS(=O)(=O)NC1CCN(c2cc(-c3ccc(Cl)cn3)c(Cl)cn2)CC1 [Example A-11, N-[1-(5,5′-dichloro-2,4′-bipyridin-2′-yl)piperidin-4-yl]methanesulfonamide] | 32.9 | 78 | 152
CS(=O)(=O)NC1CCN(c2cc(-c3ncc(Cl)cc3Cl)c(Cl)cn2)CC1 [Example A-12, N-[1-(3,5,5′-trichloro-2,4′-bipyridin-2′-yl)piperidin-4-yl]methanesulfonamide] | 18.8 | 88 | 53.4
CS(=O)(=O)NC1CCN(c2cc(-c3ccc(C(F)(F)F)cn3)c(Cl)cn2)CC1 [Example A-13, N-{1-[5′-chloro-5-(trifluoromethyl)-2,4′-bipyridin-2′-yl]piperidin-4-yl}methanesulfonamide] | 110 | 56 | 404
Cc1cnc(-c2cc(N3CCC(NS(C)(=O)=O)CC3)ncc2Cl)c(C)c1 [Example A-14, N-[1-(5′-chloro-3,5-dimethyl-2,4′-bipyridin-2′-yl)piperidin-4-yl]methanesulfonamide] | 6.4 | 95 | 16.4
CS(=O)(=O)NC1CCN(c2ccc(Cl)c(-c3ccccn3)n2)CC1 [Example A-15, N-[1-(3-chloro-2,2′-bipyridin-6-yl)piperidin-4-yl]methanesulfonamide] | 34.3 | 83 | 78.5
Cc1cccnc1-c1nc(N2CCC(NS(C)(=O)=O)CC2)ccc1Cl [Example A-16, N-[1-(3-chloro-3′-methyl-2,2′-bipyridin-6-yl)piperidin-4-yl]methanesulfonamide] | 20.6 | 97.8 | 14.5
CS(=O)(=O)NC1CCN(c2cc(-c3ncc(Cl)cc3F)c(Cl)cn2)CC1 [Example A-17, N-[1-(5,5′-dichloro-3-fluoro-2,4′-bipyridin-2′-yl)piperidin-4-yl]methanesulfonamide] | 511 | 63 | 60
CS(=O)(=O)NC1CCN(c2cc(-c3ccc(F)cn3)c(Cl)cn2)CC1 [Example A-18, N-[1-(5′-chloro-5-fluoro-2,4′-bipyridin-2′-yl)piperidin-4-yl]methanesulfonamide] | 343 | 58.9 | 82
O=S(=O)(CCO)N1CCN(c2ccc(Cl)c(-c3ccccn3)n2)CC1 [Example A-137, 2-{[4-(3-chloro-2,2′-bipyridin-6-yl)piperazin-1-yl]sulfonyl}ethanol] |  | 45.8 | 
